Where “and” joins values, the source holds several entries; their conditions need not be identical. Equal values may be shown once. Read-outs that look alike come from different tables or passages of the source.
Columns and labels:
[1] = Plasma concentrations of ATV and metabolites by HPLC-MS/MS in NSTE-ACS patients at V2 (1 month); type: in vivo, human; details: for concentration at […] / concentration at 1 month: human, plasma, oral; for concentration at […]: plasma at V2, median […] since last ATV (estimated), read-out: Conc (ng/mL), median (IQR); for concentration at 1 month: median ATV concentration, unadjusted
Description: This investigation harnessed the Pharmacogenetics of Acute Coronary Syndrome (PhACS) study, described previously.13 Briefly, PhACS was a UK multicentre prospective observational study that recruited 1470 eligible patients hospitalised with an NSTE‐ACS between 2008–2012 and followed them up at 1 (V2) and 12 (V3) months. Demographic, comorbidity and prescription information was collected at baseline; drug use, drug adherence, and new clinical events were captured during follow up. PhACS participants were genotyped using the Illumina HumanOmniExpressExome‐8 v1.0 BeadChip at Edinburgh Genomics (Roslin Institute, Scotland).
Briefly, 50‐μL plasma samples were first mixed with 20 μL of a composite internal standard solution containing a deuterated internal standard for each analyte, and then diluted further by addition of 180 μL 100% acetonitrile containing 0.3% acetic acid. Following centrifugation, the supernatant was diluted 1:2 in water and a 5‐μL aliquot injected for analysis. Analytes were separated using a 2.7‐μm Halo C18 column (50 × 2.1 mm ID, 90 Å, Hichrom Limited, Reading, UK, part number: 92812–402) with gradient elution, housed within a Shimadzu Nexera X2 modular system (Kyoto, Japan). Analytes were detected in low mass positive ionisation mode using multiple reaction monitoring (Sciex triple quadrupole 6500 QTRAP mass spectrometer with a Turbo electrospray source, AB Sciex, Warrington, UK). […] Calibration and quality control (QC) samples were prepared in pooled healthy human volunteer K3 EDTA plasma (Sera Laboratories International, West Sussex, UK).

[2] = Main analysis: all subsets multivariable linear regression with BIC model averaging of clinical factors/comedications on ATV analyte levels, ratios and sum total; type: in vivo, human; details: log10 transformed plasma concentration, model averaged coefficient
Description: All variables were considered in model selection (see below) except hypertension, hyperlipidaemia, and prior CVD.
Prior to modelling, all endpoints were log10 transformed to normalise the distribution of (observed) residuals and optimise homoscedasticity.
Third, the derived models were ranked according to the Bayesian information criterion (BIC), which is more conservative than the corrected Akaike information criterion because BIC carries a larger penalty for increasing model complexity.19 Fourth, all models with a BIC within 2 of the model with the lowest BIC (BIC Δ < 2) underwent model averaging to produce model averaged (unstandardised) coefficients and standard errors for all the covariates included in this set of models, to enable multimodel inferences. The model selection constraint of Δ < 2 was chosen because the empirical evidence supporting each of these models is considered essentially equivalent.19 Conditional averaging was used, and so for a given covariate, its coefficient and standard error were averaged from only those models with BIC Δ < 2 that contained the covariate.20 This approach was taken because of the interest in assessing the relationship between individual covariates and the endpoints, with overall model predictive capability of secondary importance.21 The relative importance of each of the selected covariates to the endpoint was assessed by summing the BIC‐derived model weight for all models that underwent model averaging and contained the covariate. The P‐value for each covariate in the final model is provided for reference only. The utility of the final produced model for describing the observed variation in the endpoint was assessed using the unadjusted R^2 value. This process was undertaken for all endpoints. The above described covariate selection and model averaging was carried out using the R statistical package, MuMIn. 20

[3] = Genotype-stratified analysis: loop diuretic association with endpoints by ABCG2 rs2231142 (Q141K); type: in vivo, human; details: adjusted
Procedure: (§1) Exploratory genotype‐stratified analyses were carried out to further assess key identified drug–drug interactions. Specifically, the adjusted association of PPIs with endpoints was determined following cohort stratification by CYP2C19 predicted metaboliser status, because PPIs are metabolised by CYP2C19.22, 23 CYP2C19 was stratified by *2 (rs4244285; directly genotyped) and *17 (rs12248560; imputed) diplotypes into: extensive (EM, *1/*1), intermediate (IM, *1/*2 or *2/*17), poor (PM, *2/*2), rapid (RM, *1/*17) and ultra‐rapid metabolisers (UM, *17/*17). Due to the small number of PM (n = 10) and UM (n = 24) patients, PMs were combined with IMs, and UMs with RMs, for analysis. […] Secondly, the impact of https://www.guidetopharmacology.org/GRAC/ObjectDisplayForward?objectId=792 rs2231142 (Q141K; imputed) on the adjusted associations of loop diuretics with the endpoints was considered.
(§2) The sensitivity and genotype‐stratified analyses were only conducted on those endpoints where the perpetrator comedication of interest had been included in the endpoint's main analysis model, and P < .05 was taken to indicate significance. All statistical testing was carried out in the R computing environment,26 except for the secondary stepwise analysis that was undertaken in IBM SPSS version 22.0 (IBM Corp, Armonk, NY, USA); boxplots were produced in GraphPad Prism (version 5.00 for Windows: GraphPad Software Inc., San Diego, USA).

[4] = Genotype-stratified analysis: PPI association with endpoints by CYP2C19 predicted metaboliser status; type: in vivo, human; details: adjusted
Procedure: as §1, §2

[5] = cited from earlier work
[6] = tested on: 3‐hydroxy‐3‐methyl‐glutaryl‐coenzyme A reductase (HMGCR); details: background statement in introduction; cited from earlier work
[7] = tested on: breast cancer resistance protein (BCRP, encoded by ABCG2); details: cited from earlier work
[8] = ABCG2 rs2231142 WT (n = 435), on LD n = 74
[9] = ABCG2 rs2231142 variant carrier (n = 136), on LD n = 22
[10] = CYP2C19 EM (n = 233), on PPI n = 88
[11] = CYP2C19 PM/IM (n = 152), on PPI n = 58
[12] = CYP2C19 RM/UM (n = 186), on PPI n = 83

concentration at […] ([1]; 40 mg daily, 40 mg ATV daily) [ng/mL] | concentration at […] ([1]; 80 mg daily, 80 mg ATV daily) [ng/mL] | B (SE), ATV dose on analyte level [2] | B (SE), Age on analyte level [2] | B (SE), Body mass index on analyte level [2] | B (SE), Loop diuretic on analyte level [2] | B (SE), Proton pump inhibitor on analyte level [2] | B (SE), Sample storage duration on analyte level [2] | B (SE), Time since last ATV on analyte level [2] | B (SE), Loop diuretic on analyte level [3, 8] | B (SE), Loop diuretic on analyte level [3, 9] | B (SE), Proton pump inhibitor on analyte level [4, 10] | B (SE), Proton pump inhibitor on analyte level [4, 11] | B (SE), Proton pump inhibitor on analyte level [4, 12] | Compound | activity against HMGCR [6] | also measured
5.35 | 6.93 | 0.212 (0.048) | 0.007 (0.001) | −0.006 (0.002) | 0.074 (0.033) | 0.062 (0.024) | −0.0001 (0.00003) | −0.0007 (0.0001) | 0.072 (0.039) | −0.051 (0.077) | 0.045 (0.038) | 0.032 (0.050) | – | CC(C)c1c(C(=O)Nc2ccccc2O)c(-c2ccccc2)c(-c2ccc(F)cc2)n1CC[C@@H](O)C[C@@H](O)CC(=O)O [2‐OH ATV] | – | B (SE), Smoking on analyte level ([2]; current vs previous/never): −0.076 (0.028); B (SE), Chronic kidney disease on analyte level [2]: 0.111 (0.051); B (SE), Diabetes mellitus on analyte level [2]: 0.079 (0.031)
3.96 | 5.22 | 0.153 (0.058) | 0.004 (0.001) | – | 0.099 (0.040) | 0.093 (0.030) | – | −0.001 (0.0001) | 0.121 (0.044) | 0.041 (0.086) | 0.052 (0.045) | 0.046 (0.061) | 0.162 (0.050) | CC(C)c1c(C(=O)Nc2ccccc2)c(-c2ccccc2)c(-c2ccc(F)cc2)n1CC[C@@H](O)C[C@@H](O)CC(=O)O [ATV, atorvastatin, reference compound] | inhibit | fraction of an ATV dose excreted through the kidneys [5]: < 2%; concentration at 1 month ([1]; patients not on a PPI): 4.9 ng/mL; concentration at 1 month ([1]; patients not on a loop diuretic): 4.9 ng/mL; concentration at 1 month ([1]; patients on a PPI): 5.6 ng/mL; concentration at 1 month ([1]; patients on a loop diuretic): 6.8 ng/mL; increase in median ATV concentration ([1]; with PPIs vs without): 14% and ~ 14%; increase in median ATV concentration ([1]; with loop diuretics vs without): 38% and ~ 38%; B (SE), Amiodarone on analyte level [2]: 0.282 (0.129)
4.24 | 7 | 0.215 (0.051) | 0.006 (0.001) | −0.006 (0.002) | 0.084 (0.035) | 0.106 (0.026) | 0.0001 (0.00003) | −0.0006 (0.0001) | 0.102 (0.040) | 0.044 (0.075) | 0.065 (0.039) | 0.018 (0.057) | 0.199 (0.042) | CC(C)c1c(C(=O)Nc2ccccc2O)c(-c2ccccc2)c(-c2ccc(F)cc2)n1CCC1CC(O)CC(=O)O1 (centres unmarked) [2‐OH ATV L] | inactive | B (SE), Hepatic disease on analyte level [2]: −0.289 (0.134)
– | – | – | – | – | – | – | – | – | – | – | – | – | – | CCCCNc1cc(C(=O)O)cc(S(N)(=O)=O)c1Oc1ccccc1 [bumetanide] | – | inhibition of BCRP in vitro [7]: inhibit
– | – | – | – | – | – | – | – | – | – | – | – | – | – | CC(C)c1c(C(=O)Nc2ccc(O)cc2)c(-c2ccccc2)c(-c2ccc(F)cc2)n1CC[C@@H](O)C[C@@H](O)CC(=O)O [4‐OH ATV] | inhibit | –
2.51 | 3.97 | 0.222 (0.064) | – | −0.006 (0.003) | 0.121 (0.043) | 0.139 (0.033) | 0.0002 (0.00004) | −0.0007 (0.0001) | 0.149 (0.048) | 0.077 (0.089) | 0.076 (0.050) | 0.084 (0.070) | 0.232 (0.053) | CC(C)c1c(C(=O)Nc2ccccc2)c(-c2ccccc2)c(-c2ccc(F)cc2)n1CCC1CC(O)CC(=O)O1 (centres unmarked) [ATV L] | – | B (SE), Amiodarone on analyte level [2]: 0.320 (0.142); B (SE), Sex (F vs M) on analyte level [2]: −0.097 (0.038)
– | – | – | – | – | – | – | – | – | – | – | – | – | – | CC(C)c1c(C(=O)Nc2ccc(O)cc2)c(-c2ccccc2)c(-c2ccc(F)cc2)n1CCC1CC(O)CC(=O)O1 (centres unmarked) [4‐OH ATV L] | inactive | –

— article PMC6983514 (British Journal of Clinical Pharmacology, 2020)
